Measured values published in the supplement of paper PMC10307832.

Columns and labels:
Experiment in all cases: relative viability (nuclei count vs DMSO), 5 days (fraction); higher = more cells survive
Seliciclib + Vorinostat = compound: CC[C@H](CO)Nc1nc(NCc2ccccc2)c2ncn(C(C)C)c2n1 [Seliciclib] + O=C(CCCCCCC(=O)Nc1ccccc1)NO [Vorinostat] (partner 1 µM)
Method in brief: (§1)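 Lung cancer cell lines were seeded in 1536-well plates and dosed by pin tool the next day, with either a single drug or a fixed anchor-drug dose combined with five library-drug doses (not always all listed) spaced in √10 steps. Five days later, one step fixed the cells and stained their nuclei (final 0.05% Triton X-100, 1% formaldehyde, 1 ug/ml Hoechst), and nuclei were counted on 4× images. Relative viability is the nuclei count in treated wells divided by the count in vehicle wells, and each value is the median of duplicate plates.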

Seliciclib + Pemetrexed = compound: CC[C@H](CO)Nc1nc(NCc2ccccc2)c2ncn(C(C)C)c2n1 [Seliciclib] + Nc1nc2[nH]cc(CCc3ccc(C(=O)N[C@@H](CCC(=O)O)C(=O)O)cc3)c2c(=O)[nH]1 [Pemetrexed] (partner 0.2 µM)
Method in brief: as §1

Seliciclib + Dasatinib = compound: CC[C@H](CO)Nc1nc(NCc2ccccc2)c2ncn(C(C)C)c2n1 [Seliciclib] + Cc1nc(Nc2ncc(C(=O)Nc3c(C)cccc3Cl)s2)cc(N2CCN(CCO)CC2)n1 [Dasatinib] (partner 0.075 µM)
Method in brief: as §1

Seliciclib + Palbociclib = compound: CC[C@H](CO)Nc1nc(NCc2ccccc2)c2ncn(C(C)C)c2n1 [Seliciclib] + CC(=O)c1c(C)c2cnc(Nc3ccc(N4CCNCC4)cn3)nc2n(C2CCCC2)c1=O [Palbociclib] (partner 0.5 µM)
Method in brief: as §1

Row | Cell Line | relative viability (Seliciclib + Vorinostat; first compound 0.08 µM) | relative viability (Seliciclib + Vorinostat; first compound 0.253 µM) | relative viability (Seliciclib + Vorinostat; first compound 0.8 µM) | relative viability (Seliciclib + Vorinostat; first compound 2.53 µM) | relative viability (Seliciclib + Vorinostat; first compound 8 µM) | relative viability (Seliciclib + Pemetrexed; first compound 0.08 µM) | relative viability (Seliciclib + Pemetrexed; first compound 0.253 µM) | relative viability (Seliciclib + Pemetrexed; first compound 0.8 µM) | relative viability (Seliciclib + Pemetrexed; first compound 2.53 µM) | relative viability (Seliciclib + Pemetrexed; first compound 8 µM) | relative viability (Seliciclib + Dasatinib; first compound 0.08 µM) | relative viability (Seliciclib + Dasatinib; first compound 0.253 µM) | relative viability (Seliciclib + Dasatinib; first compound 0.8 µM) | relative viability (Seliciclib + Dasatinib; first compound 2.53 µM) | relative viability (Seliciclib + Dasatinib; first compound 8 µM) | relative viability (Seliciclib + Palbociclib; first compound 0.08 µM) | relative viability (Seliciclib + Palbociclib; first compound 0.253 µM) | relative viability (Seliciclib + Palbociclib; first compound 0.8 µM) | relative viability (Seliciclib + Palbociclib; first compound 2.53 µM) | relative viability (Seliciclib + Palbociclib; first compound 8 µM)
1 | NCI-H460 | 0.709 | 0.809 | 0.671 | 0.901 | 0.552 | 0.0625 | 0.0553 | 0.0625 | 0.0593 | 0.0753 | 0.524 | 0.391 | 0.357 | 0.288 | 0.363 | 0.203 | 0.186 | 0.169 | 0.117 | 0.0761
2 | NCI-H520 | 0.704 | 0.635 | 0.802 | 0.725 | 0.632 | 0.535 | 0.627 | 0.657 | 0.654 | 0.619 | 0.167 |  | 0.258 | 0.219 | 0.178 | 0.237 | 0.187 | 0.17 | 0.189 | 0.203
3 | NCI-H522 | 0.854 | 0.84 | 1.01 | 0.881 | 0.744 | 1.11 | 0.917 | 1.18 | 1.01 | 0.914 | 1.06 | 0.827 | 1.05 | 0.82 | 0.834 | 0.913 | 1.01 | 0.972 | 0.909 | 0.87
4 | NCI-H647 | 0.615 | 0.268 | 0.639 | 0.299 | 0.128 | 0.2 | 0.151 | 0.174 | 0.179 | 0.196 | 0.225 |  | 0.209 | 0.166 | 0.189 | 0.321 | 0.188 | 0.395 | 0.296 | 0.216
5 | NCI-H650 | 0.403 | 0.36 | 0.638 | 0.3 | 0.341 | 1.06 | 0.905 | 1.07 | 0.73 | 0.825 | 0.447 | 0.387 | 0.596 | 0.262 | 0.39 | 0.357 | 0.264 | 0.402 | 0.248 | 0.234
6 | NCI-H661 | 0.721 | 0.918 | 0.748 | 0.703 | 0.565 | 0.839 | 1.03 | 0.921 | 0.82 | 0.806 | 0.832 | 1.03 | 0.9 | 0.739 | 0.547 | 0.396 | 0.401 | 0.359 | 0.286 | 0.292
7 | NCI-H838 | 0.649 | 0.683 | 0.666 | 0.595 | 0.342 | 0.246 | 0.28 | 0.242 | 0.263 | 0.239 | 0.341 | 0.198 | 0.26 | 0.218 | 0.303 | 0.216 | 0.257 | 0.211 | 0.169 | 0.197
8 | NCI-H1355 | 0.635 | 0.605 | 0.647 | 0.523 | 0.5 | 0.945 | 0.922 | 1.02 | 1.02 | 0.962 | 0.755 | 0.585 | 0.683 | 0.544 | 0.686 | 0.374 | 0.331 | 0.364 | 0.371 | 0.341
9 | NCI-H1395 | 0.83 | 0.597 | 0.702 |  | 0.631 | 0.932 | 0.757 | 0.854 |  | 0.756 | 0.464 | 0.406 | 0.428 | 0.361 | 0.368 | 0.596 | 0.49 | 0.604 |  | 0.523
10 | NCI-H1437 | 0.811 | 0.901 | 0.69 | 0.633 | 0.374 | 0.32 | 0.358 | 0.333 | 0.315 | 0.306 | 0.465 | 0.438 | 0.323 | 0.233 | 0.335 | 0.323 | 0.324 | 0.298 | 0.221 | 0.223
11 | NCI-H1650 | 0.474 | 0.511 | 0.558 | 0.526 | 0.326 | 0.429 | 0.346 | 0.36 | 0.427 | 0.399 | 0.3 | 0.344 | 0.304 | 0.247 | 0.285 | 0.369 | 0.317 | 0.332 | 0.353 | 0.216
12 | NCI-H1651 | 0.515 | 0.551 | 0.542 | 0.477 | 0.457 | 0.518 | 0.591 | 0.61 | 0.388 | 0.561 | 0.403 | 0.399 | 0.536 | 0.302 | 0.382 | 0.51 | 0.512 | 0.502 | 0.436 | 0.411
13 | NCI-H1666 | 1.01 | 1 | 0.978 | 1.01 | 0.749 | 0.918 | 0.959 | 0.824 | 0.821 | 0.815 | 0.732 | 0.888 | 0.875 | 0.605 | 0.551 | 0.635 | 0.633 | 0.666 | 0.603 | 0.5
14 | NCI-H1734 | 0.802 | 0.623 | 0.969 | 0.716 | 0.456 | 0.417 | 0.35 | 0.432 | 0.448 | 0.416 | 0.488 | 0.426 | 0.493 | 0.295 | 0.335 | 0.35 | 0.26 | 0.369 | 0.286 | 0.282
15 | NCI-H1755 | 0.654 | 0.748 | 0.696 | 0.692 | 0.637 | 0.385 | 0.386 | 0.431 | 0.419 | 0.467 | 0.423 | 0.404 | 0.429 | 0.26 | 0.404 | 0.417 | 0.477 | 0.342 | 0.433 | 0.412
16 | NCI-H1793 | 0.707 | 0.718 | 0.59 | 0.716 | 0.439 | 0.842 | 0.741 | 0.77 | 0.857 | 0.912 | 0.33 | 0.323 | 0.414 | 0.37 | 0.482 | 0.28 | 0.258 | 0.289 | 0.289 | 0.224
17 | NCI-H1915 | 0.499 | 0.532 | 0.611 | 0.492 | 0.421 | 0.483 | 0.483 | 0.492 | 0.604 | 0.514 | 0.354 | 0.303 | 0.277 | 0.288 | 0.283 | 0.522 | 0.545 | 0.449 | 0.457 | 0.315
